Assay results as given in BindingDB's records for doi:10.7270/Q2Q52NH6 (Catholic University of Daegu, 2017).
pIC50, pKi: −log10 of the molar value.

Columns and labels:
[1] = biological target: T1, Tyrosine-protein phosphatase non-receptor type 1 (Homo sapiens, UniProt P18031); assay: PTP1B Inhibitory Assay; conditions: pH 6
T1 sequence (P18031 whole entry): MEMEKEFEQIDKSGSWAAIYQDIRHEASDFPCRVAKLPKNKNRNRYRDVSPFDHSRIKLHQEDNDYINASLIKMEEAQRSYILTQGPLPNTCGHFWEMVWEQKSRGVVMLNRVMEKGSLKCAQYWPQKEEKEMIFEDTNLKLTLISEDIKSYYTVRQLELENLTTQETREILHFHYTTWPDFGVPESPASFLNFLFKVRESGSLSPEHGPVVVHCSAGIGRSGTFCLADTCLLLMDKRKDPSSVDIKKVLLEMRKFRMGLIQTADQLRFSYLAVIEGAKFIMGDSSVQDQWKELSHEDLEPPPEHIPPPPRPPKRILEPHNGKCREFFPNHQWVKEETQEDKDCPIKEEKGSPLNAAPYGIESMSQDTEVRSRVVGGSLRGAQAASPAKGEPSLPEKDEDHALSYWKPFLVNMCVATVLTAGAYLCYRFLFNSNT
Procedure: PTP1B activity was measured by adding 2mM p-NPP and PTP1B in a 50 mM citrate buffer (pH 6.0, 0.1 M NaCl, 1 mMEDTA, and 1 mM dithiothreitol), with or without tested compounds. The plate was pre-incubated at 37 °C for 10 min, and then 50 μL of p-NPP in buffer was added. After incubating at 37 °C for 30 min, the reaction was then terminated with 1 N NaOH.

Acetylcholinesterase = Acetylcholinesterase (Homo sapiens, UniProt P22303); assay: Acetylcholinesterase Inhibitory Assay; conditions: pH 8; 25 °C
Chain of Acetylcholinesterase (P22303 whole entry): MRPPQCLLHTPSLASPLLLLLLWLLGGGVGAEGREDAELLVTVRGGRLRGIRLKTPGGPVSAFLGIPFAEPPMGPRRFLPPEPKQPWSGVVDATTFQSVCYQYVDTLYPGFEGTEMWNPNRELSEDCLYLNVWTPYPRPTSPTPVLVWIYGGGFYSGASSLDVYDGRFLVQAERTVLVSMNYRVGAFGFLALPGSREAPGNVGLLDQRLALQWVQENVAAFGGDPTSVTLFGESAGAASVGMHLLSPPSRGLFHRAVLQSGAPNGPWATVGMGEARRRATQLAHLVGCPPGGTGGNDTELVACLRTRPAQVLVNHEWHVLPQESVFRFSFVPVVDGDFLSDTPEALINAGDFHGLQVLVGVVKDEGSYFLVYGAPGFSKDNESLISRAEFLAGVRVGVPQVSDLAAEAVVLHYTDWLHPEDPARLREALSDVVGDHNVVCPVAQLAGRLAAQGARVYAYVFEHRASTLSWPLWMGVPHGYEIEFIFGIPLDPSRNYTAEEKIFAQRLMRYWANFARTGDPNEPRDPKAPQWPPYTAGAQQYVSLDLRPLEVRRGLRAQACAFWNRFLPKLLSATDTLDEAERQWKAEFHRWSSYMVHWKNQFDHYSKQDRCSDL
Procedure: Briefly, 140 μL of sodium phosphate buffer (pH 8.0), 20 μL of each tested compound with different concentrations (4, 20, and 100 μM) and 20 μL enzyme solution were mixed and incubated at room temperature for 15 min. The reactions were initiated by the addition of 10 μL of 0.01 M 5,5'-dithiobis(2-nitrobenzoic acid) (DTNB) and 10 μL of 0.075 ATCI. […] The reaction was independently experimented for three times and recorded in 96-well microplates using a microplate reader (VersaMax).

[2] = biological target: T1, Tyrosine-protein phosphatase non-receptor type 1; assay: Kinetic Analysis
Procedure: The reaction mixtures contained in various different concentrations of p-NPP as a PTP1B substrate in the presence or absence of the active compound. The kinetic analysis was evaluated for Michaelis-Menten plot, Lineweaver-Burk plot, and Dixon plot. The Michaelis constant (Km), maximum velocity (Vmax), and the inhibition constants (Ki) were determined by using Sigma Plot software (13.0 software, SPCC Inc., Chicago, IL, USA).

Compound | pIC50 [1] | pIC50 (Acetylcholinesterase) | pKi [2]
O=c1cc(-c2ccc(O)cc2)oc2cc(O)cc(O)c12 [Naringenin, 18] | 4.00 | 4.19 | 
O=c1c(O)c(-c2ccc(O)c(O)c2)oc2cc(O)cc(O)c12 [2-(3,4-dihydroxyphenyl)-3,5,7-trihydroxy-chromone;hydrate] |  | 4.14 | 
O=c1cc(-c2ccc(O)c(O)c2)oc2cc(O[C@@H]3O[C@H](CO)[C@@H](O)[C@H](O)[C@H]3O)cc(O)c12 | 4.15 | 4.13 | 
O=C(O)[C@H]1O[C@@H](Oc2cc(O)c3c(=O)cc(-c4ccc(O)c(O)c4)oc3c2)[C@H](O)[C@@H](O)[C@@H]1O [Luteolin 7-O-β-D-glucuronide (14)] | 4.42 | 4.05 | 
O=c1oc2c(O)c(O)cc3c(=O)oc4c(O)c(O)cc1c4c23 [Elagic Acid] | 5.11 | 4.00 | 5.55
COC(=O)[C@H]1O[C@@H](Oc2cc(O)c3c(=O)cc(-c4ccc(O)cc4)oc3c2)C(O[C@@H]2OC(CO)[C@@H](O)C(O)[C@@H]2O)[C@H]1O (some centres not stated) [Agriflavone (2)] | 4.00 | 4.20 | 
O=c1cc(-c2ccc(O)c(O[C@@H]3O[C@H](CO)[C@@H](O)[C@H](O)[C@H]3O)c2)oc2cc(O)cc(O)c12 [Luteolin 3'-O-β-D-glucoside (17)] | 4.00 | 4.13 | 
O=c1c(O[C@@H]2O[C@H](CO)[C@@H](O)[C@H](O)[C@H]2O)c(-c2ccc(O)c(O)c2)oc2cc(O)cc(O)c12 [2-(3,4-dihydroxyphenyl)-5,7-dihydroxy-3-[(2S,3R,4S,5S,6R)-3,4,5-trihydroxy-6-(hydroxymethyl)oxan-2-yl]oxychromen-4-one] | 4.00 | 4.07 | 
O=C(O[C@H]1OC(CO)[C@@H](O)[C@@H]2OC(=O)c3cc(O)c(O)c(c3O)-c3c(O)c(O)cc(c3O)C(=O)OC12)c1cc(O)c(O)c(O)c1 (some centres not stated) [Agritannin (1)] | 4.77 | 4.22 | 
O=c1c(O)c(-c2ccc(O)c(O[C@@H]3O[C@H](CO)[C@@H](O)[C@H](O)[C@H]3O)c2)oc2cc(O)cc(O)c12 [Quercetin 3'-O-β-D-glucoside (12)] | 4.00 | 4.05 | 
COc1cc(C2Oc3c(OC)cc(CCCO)cc3C2CO)ccc1O[C@@H]1OC(CO)[C@@H](O)C(O)[C@@H]1O (stereo partly drawn) [dihydrodehydrodiconifeyl alcohol 9'-O-β-D-glucose (19)] | 4.00 | 4.03 | 
O=C(OCOc1cc(O)c2c(=O)cc(-c3ccc(O)c(O)c3)oc2c1)[C@H]1O[C@@H](O)[C@H](O)[C@@H](O)[C@@H]1O [Luteolin 7-O-β-D-glucuronide methyl ester (15)] | 4.31 | 4.18 | 
O=c1cc(-c2ccc(O)cc2)oc2cc(O[C@@H]3O[C@H](CO)[C@@H](O)[C@H](O)[C@H]3O)cc(O)c12 [NSC-407303] | 4.00 | 4.00 | 
O=C(O)[C@H]1O[C@@H](Oc2cc(O)c3c(=O)c(O)c(-c4ccc(O)cc4)oc3c2)[C@H](O)[C@@H](O)[C@@H]1O [Kaempferol 7-O-β-D-glucuronide (5)] | 4.32 | 4.19 | 
O=c1c(O)c(-c2ccc(O)cc2)oc2cc(O[C@@H]3O[C@H](CO)[C@@H](O)[C@H](O)[C@H]3O)cc(O)c12 [Kaempferol 7-O-β-D-glucoside (4)] | 4.00 | 4.19 | 
O=C(O)[C@H]1O[C@@H](Oc2cc(O)c3c(=O)cc(-c4ccc(O)cc4)oc3c2)[C@H](O)[C@@H](O)[C@@H]1O [apigenin-7-O-betaD-glucuronic acid] | 5.15 | 4.20 | 5.59
O=c1c(O[C@@H]2O[C@H](CO)[C@@H](O)[C@H](O)[C@H]2O)c(-c2ccc(O)cc2)oc2cc(O)cc(O)c12 [Kaempferol 3-O-β-D-glucoside (6)] | 4.22 | 4.05 | 
O=C(OCCCCOc1cc(O)c2c(=O)cc(-c3ccc(O)c(O)c3)oc2c1)[C@H]1O[C@@H](O)[C@H](O)[C@@H](O)[C@@H]1O [Luteolin 7-O-β-D-glucuronide butyl ester (16)] | 4.00 | 4.11 | 
